# Results published in patent publication US20240207285A1 (Melt Pharmaceuticals, Inc., priority 2022, published 2024).
# Experiments:
# [1] = tested on: subjects undergoing cataract extraction with lens replacement (CELR); test: Phase 2 subjects achieving procedural sedation (RSS 2 or 3 without rescue); format: in vivo, human; settings: Visit 2 (Day 1), Full Analysis Set
# Description: A Phase 2 efficacy and safety study of the MELT-300 formulation was conducted at nine sites with over 300 enrolled subjects. MELT-300 is a sublingual, needle- and opioid-free formulation for procedural sedation during cataract surgery. […] MELT-300 utilizes fast-dissolving delivery technology (Zydis®, Catalent Inc.) to rapidly dissolve the tablet for absorption across the sublingual mucosa.
# (§1) The Phase 2 study was factorial-designed, randomized, double-blind, placebo-controlled, and included parallel-cohorts. […] Primary efficacy endpoints included appropriate sedation during the cataract surgery and management of intraoperative pain during the surgery.
# Achievement of procedural sedation was evaluated for each subject (see TABLE 19). Success for procedural sedation for this Phase 2 study was defined as achieving target sedation level (Ramsay Sedation Scale (RSS) scale level 2 or 3) at the start of surgery without the need for rescue sedation medication, and no need for intraoperative rescue sedation medication to maintain target sedation level.
# [2] = tested on: subjects undergoing cataract extraction with lens replacement (CELR); test: Phase 2 mean intraoperative analgesia by the numeric pain rating scale; format: in vivo, human
# Description: An average of the available timepoints was also calculated.
# [3] = tested on: subjects undergoing cataract extraction with lens replacement (CELR); test: Phase 2 subject-rated worst pain during surgery by the numeric pain rating scale; format: in vivo, human; settings: carry forward
# [4] = tested on: subjects undergoing cataract extraction with lens replacement (CELR); test: Phase 2 subjects achieving analgesia response (NPRS <4); format: in vivo, human; settings: Visit 2 (Day 1), observed
# Description: (§2) The number of subjects achieving analgesia response (observed) in the full analysis set was determined. Success in analgesia response was defined as NPRS <4 at the available at the available four intraoperative timepoints and a failure otherwise (e.g., any interoperative pain rescue was assumed to be a failure. Results are provided in TABLE 24. The number of subjects completing the surgery is provided in TABLE 25, and the number of subjects completing the surgery without interruption is provided in TABLE 26. For this measure, subjects completing the surgery without interruption (other than rescue medication) due to pain or anxiety were considered successes. The number of subjects requiring rescue sedative medication and those requiring analgesic medication are provided in TABLES 27 and 28, respectively. For all TABLES 24-28, p-Values between pairs of treatments were calculated and are provided.
# [5] = tested on: subjects undergoing cataract extraction with lens replacement (CELR); test: Phase 2 subjects completing the surgery; format: in vivo, human; settings: Visit 2 (Day 1); Full Analysis Set
# Description: as §2
# [6] = tested on: subjects undergoing cataract extraction with lens replacement (CELR); test: Phase 2 subjects completing the surgery without interruption; format: in vivo, human; settings: Visit 2 (Day 1); Full Analysis Set
# Description: as §2
# [7] = tested on: subjects undergoing cataract extraction with lens replacement (CELR); test: Phase 2 subjects requiring rescue sedative medication; format: in vivo, human; settings: Visit 2 (Day 1)
# Description: as §2
# [8] = tested on: subjects undergoing cataract extraction with lens replacement (CELR); test: Phase 2 subjects requiring rescue analgesic medication; format: in vivo, human; settings: Visit 2 (Day 1); Full Analysis Set
# Description: as §2
# [9] = tested on: subjects undergoing cataract extraction with lens replacement (CELR); test: Phase 2 subjects wanting study drug again for a second surgery (11-point Likert scale); format: in vivo, human
# Text: Post-operation, subjects were asked whether they would want the study drug again for a second surgery using an 11-point Likert scale of 0 (not likely at all) to 10 (extremely likely).
# [10] = tested on: subjects undergoing cataract extraction with lens replacement (CELR); test: Phase 2 subjects receiving opioid concomitant medication postoperatively; format: in vivo, human
# [11] = tested on: subjects undergoing cataract extraction with lens replacement (CELR); test: Phase 2 treatment-emergent ocular adverse events (study eye, non-study eye, either eye); settings: for Eye disorders, % / General disorders and administration site conditions, % / Infections and infestations, % / Injury, poisoning and procedural complications, % / Investigations, %: system organ class
# Description: as §1
# The study eye (TABLE 31) non-study eye (TABLE 32), or either eye (TABLE 33) was assessed. TEAES were defined as events that started on or after the date of the study drug administration through the end of Visit 4 or early withdrawal. Subjects with one or more adverse event within a level of Medical Dictionary for Regulatory Activities (MedDRA) were counted only once in that level.
# [12] = Average of available timepoints, adjusted for site table, carry forward
# [13] = Average of available timepoints, carry forward
# [14] = Average of available timepoints, observed
# [15] = Corneal incision, adjusted for site table, carry forward
# [16] = Corneal incision, carry forward
# [17] = Insertion of the phacoemulsion probe, adjusted for site table, carry forward
# [18] = Insertion of the phacoemulsion probe, carry forward
# [19] = Insertion of the phacoemulsion probe, observed
# [20] = Insertion of the speculum, adjusted for site table, carry forward
# [21] = Insertion of the speculum, carry forward
# [22] = Insertion of the speculum, observed
# [23] = Insertion of the synthetic replacement lens, adjusted for site table, carry forward
# [24] = Insertion of the synthetic replacement lens, carry forward
# [25] = Insertion of the synthetic replacement lens, observed
# [26] = 11-point Likert scale 0 (not likely at all) to 10 (extremely likely)
structure (smiles),measurement,setting,value
CNC1(c2ccccc2Cl)CCCCC1=O (stereo not drawn) [Ketamine 50 mg],"Subjects achieving procedural sedation: No, %",[1],36.7%
same,"Subjects achieving procedural sedation: Yes, %",[1]; RSS 2 or 3 without rescue sedation,63.3%
same,"Intraoperative NPRS, LS Mean","[2]; Average of available timepoints, adjusted for site (study center covariate), carry forward",1.89
same,"Intraoperative NPRS, mean",[2]; [12],2.16
same,"Intraoperative NPRS, median",[2]; [12],1.75
same,"Intraoperative NPRS, mean",[2]; [13],2.16
same,"Intraoperative NPRS, median",[2]; [13],1.75
same,"Intraoperative NPRS, LS Mean","[2]; Average of available timepoints, carry forward, repeated measures model",2.16
same,"Intraoperative NPRS, mean",[2]; [14],2.00
same,"Intraoperative NPRS, median",[2]; [14],1.75
same,"Intraoperative NPRS, LS Mean","[2]; Average of available timepoints, observed, repeated measures model",2.22
same,"Intraoperative NPRS, mean",[2]; [15],1.8
same,"Intraoperative NPRS, median",[2]; [15],1.0
same,"Intraoperative NPRS, mean",[2]; [16],1.8
same,"Intraoperative NPRS, median",[2]; [16],1.0
same,"Intraoperative NPRS, mean","[2]; Corneal incision, observed",1.7
same,"Intraoperative NPRS, median","[2]; Corneal incision, observed",1.0
same,"Intraoperative NPRS, mean",[2]; [17],2.5
same,"Intraoperative NPRS, median",[2]; [17],2.0
same,"Intraoperative NPRS, mean",[2]; [18],2.5
same,"Intraoperative NPRS, median",[2]; [18],2.0
same,"Intraoperative NPRS, mean",[2]; [19],2.1
same,"Intraoperative NPRS, median",[2]; [19],2.0
same,"Intraoperative NPRS, mean",[2]; [20],1.1
same,"Intraoperative NPRS, median",[2]; [20],1.0
same,"Intraoperative NPRS, mean",[2]; [21],1.1
same,"Intraoperative NPRS, median",[2]; [21],1.0
same,"Intraoperative NPRS, mean",[2]; [22],1.1
same,"Intraoperative NPRS, median",[2]; [22],1.0
same,"Intraoperative NPRS, mean",[2]; [23],3.3
same,"Intraoperative NPRS, median",[2]; [23],3.0
same,"Intraoperative NPRS, mean",[2]; [24],3.3
same,"Intraoperative NPRS, median",[2]; [24],3.0
same,"Intraoperative NPRS, mean",[2]; [25],2.5
same,"Intraoperative NPRS, median",[2]; [25],2.0
same,"Intraoperative NPRS, LS Mean Difference versus placebo","[2]; adjusted for site, carry forward",−0.30
same,"Intraoperative NPRS, LS Mean Difference versus placebo","[2]; carry forward, repeated measures model",−0.32
same,"Intraoperative NPRS, LS Mean Difference versus placebo","[2]; observed, repeated measures model",−0.26
same,"Worst Pain During Surgery, Mean Difference versus placebo",[3],−0.33
same,"Worst Pain During Surgery (NPRS), mean",[3]; Full Analysis Set,3.7
same,"Worst Pain During Surgery (NPRS), median",[3]; Full Analysis Set,4.0
same,"Subjects achieving analgesia response: Yes, %",[4]; NPRS <4 at four intraoperative timepoints,49.4%
same,"Subjects achieving analgesia response: No, %",[4],50.6%
same,"Subjects completing the surgery: No, %",[5],0 (0) %
same,"Subjects completing the surgery: Yes, %",[5],100.0%
same,"Subjects completing the surgery without interruption: No, %",[6],(6.3) %
same,"Subjects completing the surgery without interruption: Yes, %",[6],(93.7) %
same,"Subjects requiring rescue sedative medication: No, %",[7]; Full Analysis Set,(63.3) %
same,"Subjects requiring rescue sedative medication: Yes, %",[7]; Full Analysis Set,(36.7) %
same,"Subjects requiring rescue sedative medication: Intraoperatively, %",[7]; Intraoperatively,(6.3) %
same,"Subjects requiring rescue sedative medication: Pre-operatively, %",[7]; Pre-operatively,(30.4) %
same,"Subjects requiring rescue analgesic medication: No, %",[8],(59.5) %
same,"Subjects requiring rescue analgesic medication: Yes, %",[8],(40.5) %
same,"Want Study Drug Again, mean",[9]; [26],7.6
same,"Want Study Drug Again, median",[9]; [26],10.0
same,"Want Study Drug Again, Mean Difference versus placebo",[9]; unpaired t-test,−0.05
same,"Received Postoperative Opioid on Day 2: No, %",[10]; Day 2,(100.0) %
same,"Received Postoperative Opioid on Day 2: Yes, %",[10]; Day 2,(0.0) %
same,"Received Postoperative Opioid on Day 2-8: No, %",[10]; Day 2-8,(100.0) %
same,"Received Postoperative Opioid on Day 2-8: Yes, %",[10]; Day 2-8,(0.0) %
same,"Cataract operation complication, %",[11]; Either Eye,(0) %
same,"Conjunctivitis bacterial, %",[11]; Either Eye,(1.2) %
same,"Corneal abrasion, %",[11]; Either Eye,(0) %
same,"Corneal oedema, %",[11]; Either Eye,(1.2) %
same,"Endophthalmitis, %",[11]; Either Eye,(1.2) %
same,"Eye pain, %",[11]; Either Eye,(3.5) %
same,"Foreign body sensation in eyes, %",[11]; Either Eye,(0) %
same,"Intraocular pressure increased, %",[11]; Either Eye,(1.2) %
same,"Ocular hypertension, %",[11]; Either Eye,(1.2) %
same,"Pain, %",[11]; Either Eye,(0) %
same,"Paracentesis eye, %",[11]; Either Eye,(0) %
same,"Procedural pain, %",[11]; Either Eye,(0) %
same,"Subjects with Any Treatment-Emergent Ocular AEs, %",[11]; Either Eye,(8.2) %
same,"Vision blurred, %",[11]; Either Eye,(0) %
same,"Eye disorders, %",[11]; Either Eye,(5.9) %
same,"General disorders and administration site conditions, %",[11]; Either Eye,(0) %
same,"Infections and infestations, %",[11]; Either Eye,(2.4) %
same,"Injury, poisoning and procedural complications, %",[11]; Either Eye,(0) %
same,"Investigations, %",[11]; Either Eye,(1.2) %
same,"Conjunctivitis bacterial, %",[11]; Non-Study Eye,(1.2) %
same,"Eye pain, %",[11]; Non-Study Eye,(0) %
same,"Subjects with Any Treatment-Emergent Ocular AEs, %",[11]; Non-Study Eye,(1.2) %
same,"Vision blurred, %",[11]; Non-Study Eye,(0) %
same,"Eye disorders, %",[11]; Non-Study Eye,(0) %
same,"Infections and infestations, %",[11]; Non-Study Eye,(1.2) %
same,"Cataract operation complication, %",[11]; Study Eye,(0) %
same,"Corneal abrasion, %",[11]; Study Eye,(0) %
same,"Corneal oedema, %",[11]; Study Eye,(1.2) %
same,"Endophthalmitis, %",[11]; Study Eye,(1.2) %
same,"Eye pain, %",[11]; Study Eye,(3.5) %
same,"Foreign body sensation in eyes, %",[11]; Study Eye,(0) %
same,"Intraocular pressure increased, %",[11]; Study Eye,(1.2) %
same,"Ocular hypertension, %",[11]; Study Eye,(1.2) %
same,"Pain, %",[11]; Study Eye,(0) %
same,"Procedural pain, %",[11]; Study Eye,(0) %
same,"Subjects with Any Treatment-Emergent Ocular AEs, %",[11]; Study Eye,(7.1) %
same,"Eye disorders, %",[11]; Study Eye,(5.9) %
same,"General disorders and administration site conditions, %",[11]; Study Eye,(0) %
same,"Infections and infestations, %",[11]; Study Eye,(1.2) %
same,"Injury, poisoning and procedural complications, %",[11]; Study Eye,(0) %
same,"Investigations, %",[11]; Study Eye,(1.2) %
same,"Paracentesis eye, %",[11]; printed in the Non-Study Eye table,(0) %
